Reference: patent US10016373B2, “CB2 receptor ligands for the treatment of psychiatric disorders” (priority 2013, dated 2018)
Like-named read-outs stand apart in the source and are kept apart here.

Tests used:
Type in all cases: in vivo
mice [1] = experiment: Motor tics in the open field test
mice [2] = experiment: Prepulse inhibition (PPI) of the startle reflex
Description: Attention Test: Prepulse Inhibition (PPI) of the Startle Reflex
A weak audible stimulus (74-90 dB tone) “prepulse” was used to inhibit the acoustic startle response to a subsequent strong audible stimulus (120 dB tone) “pulse”. Reduced prepulse inhibition of the startle reflex (PPI) was taken as an index of the positive symptoms of deficits in attention.
PPI was assessed similarly to the method described by Varty et al. (2001). Mice were placed in a startle chamber and allowed to acclimatize for 5 minutes A loudspeaker produced startling “pulse” at 120 dB and thereafter 65 dB background white noise or one of […] 20 ms duration “prepulses” at 74, 78, 82, 86, and 90 dB followed after 20 ms by a 40 ms startling “pulse” at 120 dB. The response of each mouse was recorded and stored by a computer. Each test session lasted for 11 minutes and consisted of 5 presentations of each of the prepulse/pulse sound stimuli (total of 30 or 35) presented in random order and separated by 15 second intervals. The magnitude of prepulse inhibition was calculated as percentage PPI=[1-(acoustic startle for prepulse+pulse)/(acoustic startle for pulse alone)]×100.

mice [3] = system: mice
Description: For the treated mice, one of the two CB2 receptor-selective agonist solutions: either CB2 agonist2 solution or H-308 solution, was administered by intravenous administration to mice pups to induce ADHD-like behavior and/or obsessive-compulsive-like behavior as a murine model for ADHD and OCD. […] In order to test the effect of non-agonist or mixed-type agonist/inverse agonist CB2 receptor ligands on hyperactivity, the effects of M1 were studied.
Open-Field Test (Crossing and Rearing, Defecation, Grooming)
Mice were assessed for hyperactive behavior on postnatal days 16-20, 26-39, at age 13 weeks and at age 23 weeks. Mice were placed in the center of a transparent glass cage 30×40×31 cm divided into squares of 7.5×7.5 cm. The number of squares crossed and the rearing activity were evaluated for 8 min.

mice [4] = experiment: Impulsivity, Elevated Plus Maze; details: age 13 weeks, postnatal CB2 agonist2 5 mg/kg
Description: The treatment consisted of a single intravenous administration of the vehicle or the M1 solution Impulsivity was tested 24 hours after treatment.
Impulsivity as measured by the paucity of time spent on the two anxiety-provoking, open arms (as opposed to the two enclosed arms) of an “Elevated Plus Maze” was used as a parameter of negative symptoms of schizophrenia (Josselyn and Vaccarino, 1998). The plus maze was elevated 50 cm above the table top. Behavior of each mouse was recorded for 5 minutes by a video camera and scored using the “EthoVision” software (Noldus), measuring the number of entries as well as the amount of time spent in each arm, open or closed. Reduced time spent in the closed arms indicated reduced anxiety. Increased time spent in the opened arms indicated increased risk behavior (hyperactive and impulsive).
The treatment consisted of a single i.p. administration of the vehicle or the M1 solution. The duration ratio open arm/close arm and the frequency ratio open arm/close arm in the Elevated Plus Maze were evaluated 24 hours after treatment with either vehicle or M1.

mice [5] = experiment: Vocal tics, ultrasonic voice recording
Description: Mice were recorded at the age of 13 or 23-25 weeks with an ultrasonic voice recorder (Noldus). Mice were recorded at the age of 29 days with an ultrasonic voice recorder (AviSoft). Single mice were recorded in a cage for 10 min (according to sex and type of treatment). The number and duration of events at 20-40 kHz and at 50-70 kHz were analyzed. In some experiments, 24 h following M1 treatment, each mouse was recorded for 10 min before and after stress. Stress was induced by incubation for 10-15 min in a mouse restrainer.

Compound: CCCCCCC(C)(C)c1cc(OC)c([C@@H]2C=C(CO)[C@@H]3C[C@H]2C3(C)C)c(OC)c1 [HU-308, [(1R,2R,5R)-2-[2,6-dimethoxy-4-(2-methyloctan-2-yl)phenyl]-7,7-dimethyl-4-bicyclo[3.1.1]hept-3-enyl]methanol]
- abnormal motor tics/head twitches (mice [1]; HU-308 5 mg/kg during postnatal days 5-13, age of 12 weeks, open field test): induced
- Number of tics, Total (mice [1]; HU-308 5 mg/kg postnatal days 5-13, age 12 weeks, total over the recording): 18
- percent pre-pulse inhibition (mice [2]; female mice injected with HU-308 at postnatal days 5-13, FIG. 3D): decreased
- percent pre-pulse inhibition (mice [2]; male mice injected with HU-308 at postnatal days 5-13, FIG. 3C): decreased
- hyperactivity (mice [3]; age of 3 months, 0.1 mg/kg HU-308, M1 5 mg/kg in gavage 30 minutes before the experiment, FIGS. 17A-B): induced
- ambulation (mice [3]; open field test at postnatal days 16-19, 5 mg/kg HU-308 at postnatal days 5-13, FIG. 2A): increased
- rearing (mice [3]; open field test at postnatal days 16-19, 5 mg/kg HU-308 at postnatal days 5-13, FIG. 2B): increased

Compound: C=C1CC/C=C(\C)CC[C@@H]2[C@@H]1CC2(C)C [CB2 agonist2, beta-caryophyllene]
- ratio of duration in the open arm/close arm (mice [4]; females, FIG. 6A): increased
- ratio of duration in the open arm/close arm (mice [4]; males+females, FIG. 6B): increased
- percent pre-pulse inhibition (mice [2]; female mice treated with CB2 agonist2 at postnatal days 5-13, FIG. 3B): decreased
- acoustic startle (mice [2]; model mice vs control mice at the age of 8 weeks, FIG. 3A): not significantly different
- number of vocal events (mice [5]; 20-40 KHz, day 29, female mice, CB2 agonist2 0.5 mg/kg at the age of 3-15 days, M1 5 mg/kg on day 29, FIG. 14A): increased
- duration of vocals (mice [5]; 20-40 KHz, day 29, female mice, CB2 agonist2 0.5 mg/kg at the age of 3-15 days, M1 5 mg/kg on day 29, FIG. 14B): increased
- number of vocal events (mice [5]; female mice 23-25 weeks, 20-40 KHz, stress, CB2 agonist2 5 mg/kg postnatal days 5-13, M1 given to model mice, FIG. 7A): increased
- total duration of vocal events (mice [5]; female mice 23-25 weeks, 20-40 KHz, stress, CB2 agonist2 5 mg/kg postnatal days 5-13, M1 given to model mice, FIG. 7B): increased
- mean duration of vocal events (mice [5]; female mice 23-25 weeks, 20-40 KHz, stress, CB2 agonist2 5 mg/kg postnatal days 5-13, M1 given to model mice, FIG. 7C): increased
- number of vocal events (mice [5]; female mice 23-25 weeks, 50-70 KHz, stress, CB2 agonist2 5 mg/kg postnatal days 5-13, M1 given to model mice, FIG. 8A): increased
- total duration of vocal events (mice [5]; female mice 23-25 weeks, 50-70 KHz, stress, CB2 agonist2 5 mg/kg postnatal days 5-13, M1 given to model mice, FIG. 8B): increased
- mean duration of vocal events (mice [5]; female mice 23-25 weeks, 50-70 KHz, stress, CB2 agonist2 5 mg/kg postnatal days 5-13, M1 given to model mice, FIG. 8C): increased
- total duration of vocal events (mice [5]; male mice 23-25 weeks, 20-40 KHz, before stress, CB2 agonist2 5 mg/kg postnatal days 5-13, M1 given to model mice, FIG. 9A): increased
- mean duration of vocal events (mice [5]; male mice 23-25 weeks, 20-40 KHz, before stress, CB2 agonist2 5 mg/kg postnatal days 5-13, M1 given to model mice, FIG. 9B): increased
- total duration of vocal events (mice [5]; male mice 23-25 weeks, 50-70 KHz, before stress, CB2 agonist2 5 mg/kg postnatal days 5-13, M1 given to model mice, FIG. 10A): increased
- mean duration of vocal events (mice [5]; male mice 23-25 weeks, 50-70 KHz, before stress, CB2 agonist2 5 mg/kg postnatal days 5-13, M1 given to model mice, FIG. 10B): increased
- grooming (mice [3]; CB2 agonist2 0.5 mg/kg at the age of 3-15 days, M1 5 mg/kg on day 29, measured on day 39, stressed female mice, FIG. 13A): increased
- feces secretion (mice [3]; CB2 agonist2 0.5 mg/kg at the age of 3-15 days, M1 5 mg/kg on day 29, measured on day 39, stressed female mice, FIG. 13B): increased
- rearing (mice [3]; CB2 agonist2 0.5 mg/kg at the age of 3-15 days, M1 on day 29, measured on day 36, unstressed female mice, FIG. 12A): increased
- ambulation (mice [3]; CB2 agonist2 0.5 mg/kg at the age of 3-15 days, M1 on day 29, measured on day 39, stressed female mice, FIG. 12B): increased
- ambulation (mice [3]; CB2 agonist2 0.5 mg/kg at the age of 3-15 days, measured on day 26, unstressed females, FIG. 11A): increased
- rearing (mice [3]; CB2 agonist2 0.5 mg/kg at the age of 3-15 days, measured on day 26, unstressed females, FIG. 11C): increased
- ambulation (mice [3]; model mice 5 mg/kg CB2 agonist2 postnatal days 1-5, M1 5 mg/kg single i.p. at 13 weeks, 30 minutes after treatment, FIG. 5A): increase
- rearing (mice [3]; model mice 5 mg/kg CB2 agonist2 postnatal days 1-5, M1 5 mg/kg single i.p. at 13 weeks, 30 minutes after treatment, FIG. 5B): increase
- secretion of feces (mice [3]; model mice 5 mg/kg CB2 agonist2 postnatal days 5-13, M1 5 mg/kg single i.p. at 23 weeks, FIG. 4C): decreased
- grooming duration (mice [3]; model mice 5 mg/kg CB2 agonist2 postnatal days 5-13, M1 5 mg/kg single i.p. at 23 weeks, tested 48 hours after treatment, FIG. 4A): increased
- grooming frequency (mice [3]; model mice 5 mg/kg CB2 agonist2 postnatal days 5-13, M1 5 mg/kg single i.p. at 23 weeks, tested 48 hours after treatment, FIG. 4B): increased
- ambulation (mice [3]; open field test at postnatal days 16-19, 5 mg/kg CB2 agonist2 at postnatal days 5-13, FIG. 1A): increased
- rearing (mice [3]; open field test at postnatal days 16-19, 5 mg/kg CB2 agonist2 at postnatal days 5-13, FIG. 1B): increased
- ambulation (mice [3]; open field test at postnatal days 16-19, 10 mg/kg CB2 agonist2 at postnatal days 5-13, FIG. 1C): increased
- rearing (mice [3]; open field test at postnatal days 16-19, 10 mg/kg CB2 agonist2 at postnatal days 5-13, FIG. 1D): increased
